Values joined by “and” are separate entries in the source; they are usually repeats but may differ in a detail not shown here. Equal entries are not always repeated.
Test system: androgenetic alopecia
Assay: clinical response to oral minoxidil for androgenetic alopecia
Assay type: in vivo, human
Parameters: Response: scale not given here
Conditions: for subjects who responded to oral minoxidil: 5 mg men and 1.25 mg women
From the text: Clinical trials with minoxidil for the treatment of androgenetic alopecia have shown statistically significant results for maintenance and growth of hair. […] As described herein, the assessment of hair re-growth is based on one or more of the following parameters: patient self assessment, physician assessment using a standardized scale, global photography assessment, hair diameter measurement, average hair length measurement, average hair diameter measurement, and hair weight measurements. The current inventions provide a method of using biochemical variations in minoxidil sulfotransferase activity as a drug response marker for oral and/or topical minoxidil treatment of androgenetic alopecia. Based on the minoxidil sulfotransferase activity level, the method disclosed herein allows a physician or the patient to select the appropriate treatment and dosage thereof for the treatment of androgenetic alopecia.
In one embodiment, the test is conducted by placing a hair follicle in an assay. The hair follicle may be collected prior to minoxidil therapy, or after start of minoxidil therapy. The follicle is placed in a solution containing minoxidil. The assay is then conducted as described above, and is examined to determine whether there is a SULT1A1 response. The results are then used as a predictor for patients who will respond well to minoxidil, and who will respond better to oral minoxidil versus topical application of minoxidil. […] The first column is optical density resulting from the colorimetric testing. The second column indicates response.
A total of 123 subjects recruited. Overall among subjects with OD<0.37 85% responded to oral minoxidil (5 mg men and 1.25 mg women). Overall among subjects with OD>0.37 43% responded to oral minoxidil (5 mg men and 1.25 mg women). This was statistically significant p=0.0088 (Fischer Exact Test). In this cohort, oral minoxidil only worked on 42% of women and 73% of men.

Nc1cc(N2CCCCC2)nc(N)[n+]1[O-] [minoxidil]
share of cohort on whom oral minoxidil worked (men): 73%
Response (response of the individual patient with the OD of the same line, 0/1 not defined in the patent): 1 (15×) and 0 (11×)
subjects who responded to oral minoxidil (subjects with OD<0.37): 85%
subjects who responded to oral minoxidil (subjects with OD>0.37): 43%
share of cohort on whom oral minoxidil worked (women): 42%
